Data as given in patent US12644886B2, “Biosensor microarray compositions and methods” (Arizona Board of Regents on Behalf of Arizona State …, priority 2013, dated 2026).
Each block holds one molecule with its values, some of them ahead of it.

Molecular target: Src kinase (Homo sapiens, UniProt P12931)
Test: FET biosensor detection of Src kinase auto-phosphorylation (phosphokinase activity)
Format: biochemical
Text: FIG. 6 FET Biosensor detection of phosphokinase activity.
In some embodiments the biosensor microarray is used to quantify kinetic rates of interaction between one or more analytes in a test sample and the corresponding detector polypeptides. In other embodiments, the biosensor microarray is used to assess inhibition of a protein activity or a protein-protein interaction. For example, where the detector polypeptide is a protein kinase substrate or a kinase with autophosphorylation activity, phosphokinase activity can be detected in the presence or absence of a known or putative inhibitor of the specific phosphokinase activity (see, e.g. FIGS. 6-7). […] Further, where increased kinase phosphorylation is associated with a particular disease state, the kinase activity of particular biological samples can be assessed by contacting a biosensor microarray described herein with the relevant biological sample and detecting phosphorylation of one or more detector polypeptides. Protein kinases are important targets in a number of health condition, e.g., cancer, pulmonary hypertension, diabetes, Alzheimer's, Parkinson's, CNS diseases, macular degeneration, Idiopathic pulmonary fibrosis, systemic sclerosis, rheumatoid disorders, among other diseases, allowing discovery of kinase inhibitor drugs and applying kinase functional screening as disease diagnostics

Src kinase, sequence (P12931 whole entry): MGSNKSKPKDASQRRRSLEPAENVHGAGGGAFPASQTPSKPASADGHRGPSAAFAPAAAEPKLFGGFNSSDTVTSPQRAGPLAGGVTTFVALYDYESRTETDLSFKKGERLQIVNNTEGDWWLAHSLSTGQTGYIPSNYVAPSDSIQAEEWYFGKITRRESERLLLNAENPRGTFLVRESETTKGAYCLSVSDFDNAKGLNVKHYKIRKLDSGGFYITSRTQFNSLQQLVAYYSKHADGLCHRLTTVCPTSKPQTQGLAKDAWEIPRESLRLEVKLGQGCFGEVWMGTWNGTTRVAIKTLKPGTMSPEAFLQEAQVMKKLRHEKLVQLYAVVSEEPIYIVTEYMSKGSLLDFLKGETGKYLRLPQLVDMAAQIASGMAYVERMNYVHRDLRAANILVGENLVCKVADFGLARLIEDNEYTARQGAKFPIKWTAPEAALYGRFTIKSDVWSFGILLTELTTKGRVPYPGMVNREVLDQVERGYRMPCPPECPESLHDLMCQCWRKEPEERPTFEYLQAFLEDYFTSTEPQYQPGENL

threshold voltage response (FDEC FET response to Src kinase auto-phosphorylation by detecting H+) (upon addition of 10 mM ATP): 200 mV
SMILES: Nc1ncnc2c1ncn2[C@@H]1O[C@H](COP(=O)(O)OP(=O)(O)OP(=O)(O)O)[C@@H](O)[C@H]1O [ATP]

FDEC FET sensor response to Src kinase auto-phosphorylation upon addition (addition of ADP instead of ATP): no response
SMILES: Nc1ncnc2c1ncn2[C@@H]1O[C@H](COP(=O)(O)OP(=O)(O)O)[C@@H](O)[C@H]1O [ADP]

SMILES: CN[C@@H]1C[C@H]2O[C@@](C)([C@@H]1OC)n1c3ccccc3c3c4c(c5c6ccccc6n2c5c31)C(=O)NC4 [Staurosporine]
Src kinase inhibition (real time detection of Src kinase autophosphorylation) (2 μM staurosporine, FET-based biosensor microarray): inhibition
